Tests used:
Details in all cases: 25 °C
[1] = molecular target: Isocitrate dehydrogenase [NADP] cytoplasmic (Homo sapiens, UniProt O75874); test: Diaphorase/Resazurin Coupled Assay
Description: (§1) For WT IDH1 and IDH2, reactions were conducted at room temperature in 384-well Greiner black microtiter plates in a total volume of 10 μL of assay buffer. […] Reactions were conducted in duplicate and run kinetically. After each addition, plates were centrifuged for 60 s to ensure complete mixing of reagents.

[2] = molecular target: T1, Isocitrate dehydrogenase [NADP], mitochondrial (Homo sapiens, UniProt P48735); test: Diaphorase/Resazurin Coupled Assay
T1 sequence (P48735 whole entry): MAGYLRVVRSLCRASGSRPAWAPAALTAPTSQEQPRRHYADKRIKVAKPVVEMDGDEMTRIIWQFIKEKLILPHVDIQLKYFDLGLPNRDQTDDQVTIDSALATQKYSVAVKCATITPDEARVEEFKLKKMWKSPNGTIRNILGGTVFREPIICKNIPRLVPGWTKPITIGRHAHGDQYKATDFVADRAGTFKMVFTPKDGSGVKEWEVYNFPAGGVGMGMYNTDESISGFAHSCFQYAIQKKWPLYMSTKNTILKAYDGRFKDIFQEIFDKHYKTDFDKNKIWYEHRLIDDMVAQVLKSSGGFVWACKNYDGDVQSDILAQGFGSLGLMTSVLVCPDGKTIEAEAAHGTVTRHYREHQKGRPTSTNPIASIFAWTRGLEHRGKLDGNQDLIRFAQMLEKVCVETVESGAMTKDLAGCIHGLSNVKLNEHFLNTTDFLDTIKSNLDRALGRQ
Description: as §1

[3] = molecular target: Isocitrate dehydrogenase [NADP] cytoplasmic [R132C] (Homo sapiens, UniProt O75874, R132C); test: RapidFire-MS/MS and NADPH Assays
Sequence of Isocitrate dehydrogenase [NADP] cytoplasmic [R132C] (O75874 2-414 R132C limits assumed): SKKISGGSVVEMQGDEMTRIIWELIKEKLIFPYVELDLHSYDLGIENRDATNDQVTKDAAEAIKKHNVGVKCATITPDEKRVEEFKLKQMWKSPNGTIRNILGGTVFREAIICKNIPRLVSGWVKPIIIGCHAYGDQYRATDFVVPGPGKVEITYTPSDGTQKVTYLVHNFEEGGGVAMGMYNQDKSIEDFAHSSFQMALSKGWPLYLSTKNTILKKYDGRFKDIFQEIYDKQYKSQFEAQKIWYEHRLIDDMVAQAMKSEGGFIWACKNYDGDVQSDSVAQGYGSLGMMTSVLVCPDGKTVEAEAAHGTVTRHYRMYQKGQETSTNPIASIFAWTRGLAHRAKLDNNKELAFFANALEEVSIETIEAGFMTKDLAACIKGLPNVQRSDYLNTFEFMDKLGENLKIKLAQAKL
Description: (§2) Reactions were conducted in duplicate and quenched with final concentrations of 100 mM EDTA. After each addition plates were centrifuged for 60 s to ensure complete mixing of reagents. […] For the RapidFire-MS/MS analysis, a 0.5 μL aliquot of each well was diluted 200-fold into a separate analysis plate containing 100 μL of a f

[4] = molecular target: Isocitrate dehydrogenase [NADP] cytoplasmic [R132G] (Homo sapiens, UniProt O75874, R132G); test: RapidFire-MS/MS and NADPH Assays
Sequence of Isocitrate dehydrogenase [NADP] cytoplasmic [R132G] (O75874 2-414 R132G limits assumed): as the sequence (O75874 2-414 R132C limits assumed) above, with C131G counted along it
Description: as §2

[5] = molecular target: Isocitrate dehydrogenase [NADP] cytoplasmic [R132H] (Homo sapiens, UniProt O75874, R132H); test: RapidFire-MS/MS and NADPH Assays
Sequence of Isocitrate dehydrogenase [NADP] cytoplasmic [R132H] (O75874 2-414 R132H limits assumed): as the sequence (O75874 2-414 R132C limits assumed) above, with C131H counted along it
Description: as §2

[6] = molecular target: Isocitrate dehydrogenase [NADP], mitochondrial [R140Q] (Homo sapiens, UniProt P48735, R140Q); test: RapidFire-MS/MS and NADPH Assays
Sequence of Isocitrate dehydrogenase [NADP], mitochondrial [R140Q] (P48735 40-452 R140Q limits assumed): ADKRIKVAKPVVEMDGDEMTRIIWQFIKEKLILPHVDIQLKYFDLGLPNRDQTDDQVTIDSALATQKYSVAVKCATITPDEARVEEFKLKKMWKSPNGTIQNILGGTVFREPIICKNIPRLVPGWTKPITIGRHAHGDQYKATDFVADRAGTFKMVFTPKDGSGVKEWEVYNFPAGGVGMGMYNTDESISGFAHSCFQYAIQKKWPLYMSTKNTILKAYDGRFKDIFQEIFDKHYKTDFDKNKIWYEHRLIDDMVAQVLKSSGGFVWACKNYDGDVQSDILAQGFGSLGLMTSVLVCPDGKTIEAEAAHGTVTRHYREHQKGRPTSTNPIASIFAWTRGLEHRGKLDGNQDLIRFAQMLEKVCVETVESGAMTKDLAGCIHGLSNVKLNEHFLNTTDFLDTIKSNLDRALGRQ
Description: as §2

[7] = molecular target: Isocitrate dehydrogenase [NADP], mitochondrial [R172S] (Homo sapiens, UniProt P48735, R172S); test: RapidFire-MS/MS and NADPH Assays
Sequence of Isocitrate dehydrogenase [NADP], mitochondrial [R172S] (P48735 40-452 R172S limits assumed): as the sequence (P48735 40-452 R140Q limits assumed) above, with Q101R, R133S counted along it
Description: as §2

Sequence of Isocitrate dehydrogenase [NADP] cytoplasmic (O75874 whole entry): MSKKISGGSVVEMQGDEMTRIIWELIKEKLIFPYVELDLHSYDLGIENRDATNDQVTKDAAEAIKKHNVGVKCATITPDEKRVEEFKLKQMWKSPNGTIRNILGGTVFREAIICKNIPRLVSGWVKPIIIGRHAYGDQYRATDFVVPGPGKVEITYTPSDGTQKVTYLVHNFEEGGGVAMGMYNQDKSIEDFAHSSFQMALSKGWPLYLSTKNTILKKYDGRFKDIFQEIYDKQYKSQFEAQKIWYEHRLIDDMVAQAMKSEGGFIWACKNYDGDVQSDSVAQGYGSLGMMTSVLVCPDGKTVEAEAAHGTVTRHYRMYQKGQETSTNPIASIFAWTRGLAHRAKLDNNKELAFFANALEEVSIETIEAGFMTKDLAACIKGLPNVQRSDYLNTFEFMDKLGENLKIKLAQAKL

IC50 [1] [µM]	IC50 [2] [µM]	IC50 [3] [µM]	IC50 [4] [µM]	IC50 [5] [µM]	IC50 [6] [µM]	IC50 [7] [µM]	SMILES
> 100	> 100	4.49	23.3	10.9	> 100	> 100	Cc1cccc(NC(=O)c2nn(Cc3c[nH]cn3)c3c2CN(C(=O)c2ccc[nH]2)CC3)c1 [GSK990]
–	0.496	–	–	–	1.36	1.03	C[C@H](O)c1cccc(NC(=O)c2nn(Cc3ccc(F)cc3)c3c2CN(C(=O)c2ccc[nH]2)C[C@H]3C)c1 [GSK321]

Reference: BindingDB's records for doi:10.1038/nchembio.1930 (Albert Einstein College of Medicine, 2015)
